# Results published in US20260306421A1, “SYSTEMS AND METHODS FOR TRANSDERMAN PATCH DELIVERY” (VITAMAX PATCH WHOLESALER LLC, priority 2022, published 2026).
# Marks after values point to notes of the source that are not given here.
# Experiments:
# Format in all cases: physicochemical
# [1] = Solubility of cholecalciferol and cholecalciferol phosphate (disodium, acid); details: visual solubility
# Procedure: Aliquots of cholecalciferol, cholecalciferol phosphate disodium, and cholecalciferol phosphate acid were added to a range of solvents including propylene glycol (PG), distilled water, methanol, ethyl acetate, ethanol, n-hexane, and the visual solubility was determined. A precise assessment of the saturation solubility was for some of the solvent systems was made using high-performance liquid chromatography (HPLC). In the HPLC solubility studies, an excess of each solute was added into 2 mL of each test solvent. The solutions were left stirring overnight at room temperature, (RT), 22° C. The saturation of the solutions was confirmed by the visual appearance of crystals and the drug suspensions were filtered through 0.2 μm cellulose acetate syringe filters, diluted with excess of mobile phase, and the solute concentration of each sample was assessed using HPLC.
# [2] = Chemical stability of cholecalciferol phosphate acid in skin permeation solvents; details: 24 h, 37° C.
# Procedure: To assess the chemical stability of the cholecalciferol phosphate acid in the solutions employed in the skin permeation experiments a 1 mg/mL solution of cholecalciferol phosphate acid in propylene glycol (PG) was prepared and incubated at 37° C. for 24 hours. In addition 100 μg/mL cholecalciferol phosphate acid in 90:10 methanol:water and in 80:20 PG:water were also incubated at 37° C. for 24 hours. The concentration pre and post incubation was compared to determine the chemical stability during the permeation studies.
# [3] = Cholecalciferol phosphate adhesive suitability / compatibility screen
# Procedure: Pre-formulation studies were performed to determine the compatibility of cholecalciferol phosphate (disodium and acid forms) with a range of adhesives (Table 38) that could be used to manufacture of the patch. The compatibility of the drugs with the patch excipients was assessed through checking the clarity of the mixture.
# The compatibility of the adhesive with solvents and drug was established. The maximum drug loading in the adhesive following solvent evaporation was determined by mixing the drug, adhesive and co-solvents until a clear solution is obtained at different drug:adhesive ratios by placing a drop of solution onto patch backing sheet, leaving the slide to dry for 3-4 hours and examining the formed fil on the surface of the backings for evidence of drug crystals were assessed using KKmoon digital magnifier with LED light (China). Following patch optimization, the drug-adhesive solution was cast as 10×10 cm squares using of backing (3M™ Scotchpak™ Polyester Backing Film Laminate 9730). A sufficient volume of the adhesive was applied to achieve a target coating of 8 mg/cm^2. Following complete drying of the solvents, the adhesive layer was covered by M3 Release liner (SCOTCHPAK 9755), compressed, and then cut using 34 mm circular manual die cutter (SCP Super Cutting Press).
smiles,measurement,setting,value
"C=C1CCC(OP(=O)(O)O)CC1=CC=C1CCCC2(C)C1CCC2C(C)CCCC(C)C (stereo not drawn) [Cholecalciferol phosphate acid, cholecalciferol phosphate acid]",Solubility,[1]; solvent Ethanol,~4* mg/mL
same,Solubility,[1]; solvent Ethyl acetate,<0.1* mg/mL
same,Solubility,[1]; solvent Hexane,~40* mg/mL
same,Solubility,[1]; solvent Methanol (0.1% TFA),<0.1* mg/mL
same,Solubility,[1]; solvent PG,~10* mg/mL
same,"stability in donor, extraction and receiver solvent",[2],appropriate stability
same,Solubility,"[3]; DURO-TAK 87-2052 0.268 mL, 10 mg drug, 0.5 mL hexane, 0.4 mL ethyl acetate",Clear
same,Solubility,"[3]; DURO-TAK 87-9301 100 mg, 5 mg drug, 5 mg dodecyl amine, 0.5 mL methanol, 0.25 mL ethyl acetate",Clear
same,Solubility,"[3]; Duro-TAK 87-2516 100 mg, 10 mg drug, 10 mg dodecyl amine, 0.5 mL methanol, 0.5 mL ethyl acetate",Clear
same,Solubility,"[3]; Duro-TAK 87-2516 100 mg, 10 mg drug, 10 mg dodecyl amine, 1 mL methanol, 1.25 mL ethyl acetate",Clear
same,Solubility,"[3]; Duro-TAK 87-2516 100 mg, 10 mg drug, 10 mg dodecyl amine, 1.5 mL methanol, 1 mL ethyl acetate",Clear
same,Solubility,"[3]; Oppanol B12 1.2 g, 65 mg drug, 15.9 mL hexane",Clear
same,Solubility,"[3]; Oppanol B12 1.2 g, 65 mg drug, 15.9 mL hexane, 65 mg dodecyl amine",Clear
same,Solubility,"[3]; Oppanol B12 2.3 g, 130 mg drug, 32 mL hexane",Clear
same,compatibility with adhesives and organic solvents,"[3]; Oppanol B12, DURO-TAK 87-2516, 87-9301 and 87-2052",showed compatibility
